Paper PMC9574860, “Chemical Toolkit for PARK7: Potent, Selective, and High-Throughput” (Journal of Medicinal Chemistry, 2022)

Columns and labels:
PARK7 [1] = target: T1, PARK7 (Homo sapiens, UniProt Q99497); assay: FP assay with Rhodamine110 probe JYQ-107 (IC50 and hit validation); assay type: binding; set-up: GST (N, cleaved yes); made in house; host or cells: E. coli BL21(DE3) Rosetta2; settings: for inhibition at 12.5 µM: read-out: FP assay %Inhibiton (12.5 µM); for inhibition at 37.5 µM: read-out: FP assay %Inhibiton (37.5 µM); for inhibition at 100 µM: read-out: FP assay %Inhibiton (100 µM)
T1 sequence (Q99497 1-189): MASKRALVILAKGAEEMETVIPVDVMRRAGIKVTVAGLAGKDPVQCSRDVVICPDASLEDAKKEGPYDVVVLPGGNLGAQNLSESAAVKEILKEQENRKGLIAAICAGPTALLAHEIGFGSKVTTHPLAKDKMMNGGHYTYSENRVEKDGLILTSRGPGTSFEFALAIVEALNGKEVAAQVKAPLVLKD
Procedure: The assay was performed using the conditions as described above with a reaction volume of 20 μL per well in triplicate. Stock solutions of JYQ-88 of 1 and 0.1 mM were prepared. […] The FP signal was monitored with a BMG Labtech PHERAstar plate reader (λex/em 480/520 nm) for 2 h.
The validation was performed using the conditions as described above with a reaction volume of 20 μL per well in triplicate. […] The FP signal was monitored with a BMG Labtech PHERAstar plate reader (λex/em 480/520 nm) for 2 h. The relative loss of FP signal compared with reference controls was used to calculate the remaining enzyme activity. Inhibition percentage of these 40 compounds was plotted as a heatmap using GraphPad Prism 9.0.1 software. Color gradients indicate inhibition percentage, no inhibiton (white) and full inhibition (blue).

PARK7 [2] = target: T1, PARK7; assay: DiFMUAc PARK7 activity assay; assay type: biochemical; set-up: GST (N, cleaved yes); made in house; host or cells: E. coli BL21(DE3) Rosetta2; settings: PARK7 0.1 μM, DiFMUAc 300 μM
Procedure: Compounds were transferred using a Labcyte Echo550 acoustic dispenser to obtain a 12-point serial dilution of 0.001 to 100 μM. Next, PARK7 (15 μL, final concentration of 0.1 μM) was dispensed with a Biotek MultiFlowFX liquid dispenser and incubated for 1 h, followed by dispensing the substrate DiFMUAc (5 μL, final concentration of 300 μM). The fluorescence intensity (FI) signal was monitored with a BMG Labtech PHERAstar plate reader (λex/em 350/450 nm) for 1 h.
The validation was performed in the PBS buffer with a reaction volume of 20 μL per well in triplicate. […] Next, PARK7 (15 μL, final concentration 0.1 μM) was dispensed with a Biotek MultiFlowFX liquid dispenser and incubated for 2 h, followed by dispensing the substrate DiFMUAc (5 μL, final concentration 300 μM). The FI signal was monitored with a BMG Labtech PHERAstar plate reader (λex/em 350/450 nm) for 1 h. The increase of FI signal compared with reference controls was used to calculate the remaining enzyme activity. The inhibition percentage of these 22 compounds was plotted as a heatmap using GraphPad Prism 9.0.1 software. Color gradients indicate inhibition percentage, no inhibiton (white) and full inhibition (blue).

[3] = 12.5 µM compound, PARK7 0.2 μM, 1 h preincubation, JYQ-107 20 nM
[4] = 37.5 µM compound, PARK7 0.2 μM, 1 h preincubation, JYQ-107 20 nM
[5] = 100 µM compound, PARK7 0.2 μM, 1 h preincubation, JYQ-107 20 nM
[6] = 12.5 µM compound, 2 h preincubation
[7] = 37.5 µM compound, 2 h preincubation
[8] = 100 µM compound, 2 h preincubation

inhibition at 12.5 µM (PARK7 [1]; [3]) [%]	inhibition at 37.5 µM (PARK7 [1]; [4]) [%]	inhibition at 100 µM (PARK7 [1]; [5]) [%]	SMILES	FP assay %Inhibiton (12.5 µM) (PARK7 [1]; [3]) [%]	FP assay %Inhibiton (37.5 µM) (PARK7 [1]; [4]) [%]	FP assay %Inhibiton (100 µM) (PARK7 [1]; [5]) [%]	other results
68.3	66.1	100	COc1ccccc1CN(C)C(=O)CCl [Z57051055]				
100	100	100	CCN(c1ccc(NC(=O)CCl)cc1)C(C)C [Z56896170]				inhibition at 12.5 µM (PARK7 [2]; 12.5 µM compound, 2 h preincubation, read-out: DiFMuAc assay %Inhibiton (12.5 µM)): 81.4%; inhibition at 37.5 µM (PARK7 [2]; 37.5 µM compound, 2 h preincubation, read-out: DiFMuAc assay %Inhibiton (37.5 µM)): 94.9%; inhibition at 100 µM (PARK7 [2]; 100 µM compound, 2 h preincubation, read-out: DiFMuAc assay %Inhibiton (100 µM)): 97.4%
20.7	37.4	88.1	O=C(CCl)c1ccc(F)c(Cl)c1 [Z2492395560]				
84.2	85.1	100	O=C(CCl)Nc1ccc(N2CCCCCC2)cc1 [Z190662892]				
90.8	95.6	100	CCc1ccc(NC(=O)CCl)cc1 [Z56886400]				
88.4	89.7	100	CC(c1ccccc1)N(C)C(=O)CCl (stereo not shown) [Z86023354]				
0	0	23.5	O=C(CCl)c1ccccn1 [Z1954803958]				

The remaining lines, values behind:

SMILES	inhibition at 12.5 µM (PARK7 [1]; [3]) [%]	inhibition at 37.5 µM (PARK7 [1]; [4]) [%]	inhibition at 100 µM (PARK7 [1]; [5]) [%]	FP assay %Inhibiton (12.5 µM) (PARK7 [1]; [3]) [%]	FP assay %Inhibiton (37.5 µM) (PARK7 [1]; [4]) [%]	FP assay %Inhibiton (100 µM) (PARK7 [1]; [5]) [%]	other results
CSC1(C(=O)Nc2cccc(S(=O)(=O)F)c2)CC1 [Z1832812427]				98.3	100.0	100.0	DiFMuAc assay %Inhibiton (12.5 µM) (PARK7 [2]; [6]): 98.0%; DiFMuAc assay %Inhibiton (37.5 µM) (PARK7 [2]; [7]): 92.6%; DiFMuAc assay %Inhibiton (100 µM) (PARK7 [2]; [8]): 100.0%
O=[N+]([O-])c1ccccc1S(=O)(=O)F [Z3223579620]				100.0	100.0	100.0	DiFMuAc assay %Inhibiton (12.5 µM) (PARK7 [2]; [6]): 99.2%; DiFMuAc assay %Inhibiton (37.5 µM) (PARK7 [2]; [7]): 98.3%; DiFMuAc assay %Inhibiton (100 µM) (PARK7 [2]; [8]): 98.2%
O=C1C(=O)N(CCc2ccccc2)c2ccc(F)cc21 [STK793590, reference compound]							IC50 (PARK7 [2]; DiFMUAc assay, 1 h preincubation): 190 nM
O=C(CSC(F)(F)F)Nc1cccc(S(=O)(=O)F)c1 [Z1713569375]				98.9	100.0	100.0	DiFMuAc assay %Inhibiton (12.5 µM) (PARK7 [2]; [6]): 81.4%; DiFMuAc assay %Inhibiton (37.5 µM) (PARK7 [2]; [7]): 49.1%; DiFMuAc assay %Inhibiton (100 µM) (PARK7 [2]; [8]): 97.1%
Cc1conc1NS(=O)(=O)c1cccc(S(=O)(=O)F)c1 [Z2509450956]				100.0	100.0	100.0	DiFMuAc assay %Inhibiton (12.5 µM) (PARK7 [2]; [6]): 98.5%; DiFMuAc assay %Inhibiton (37.5 µM) (PARK7 [2]; [7]): 98.2%; DiFMuAc assay %Inhibiton (100 µM) (PARK7 [2]; [8]): 97.5%
Cn1c(=O)ccn(CC(=O)Nc2cccc(S(=O)(=O)F)c2)c1=O [Z1713568698]							inhibition at 12.5 µM (PARK7 [1]): 80.3%; inhibition at 37.5 µM (PARK7 [1]): 78.2%; inhibition at 100 µM (PARK7 [1]): 100%
O=C(Nc1cccc(S(=O)(=O)F)c1)C1CCCC1 [Z1713569513]				67.6	76.9	100.0	
O=[N+]([O-])c1ccc(C(F)(F)F)c(S(=O)(=O)F)c1 [Z3396482545]				36.7	36.2	92.4	
O=C(NCCCS(=O)(=O)F)c1cccs1 [Z3267389796]				83.1	80.1	100.0	
